Measured values from patent US5605929A, “Methods and compositions for inhibiting 5α-reductase activity” (priority 1995, dated 1997).
Where two headings read alike, the source gives them in different places.

What was measured:
[1] = biological target: T1, 5α-Reductase of Rat Liver Microsomes (Rattus norvegicus, UniProt P24008); experiment: [3H]4-MA binding assay, rat liver microsomes (tea catechins)
T1 sequence (P24008 1-259): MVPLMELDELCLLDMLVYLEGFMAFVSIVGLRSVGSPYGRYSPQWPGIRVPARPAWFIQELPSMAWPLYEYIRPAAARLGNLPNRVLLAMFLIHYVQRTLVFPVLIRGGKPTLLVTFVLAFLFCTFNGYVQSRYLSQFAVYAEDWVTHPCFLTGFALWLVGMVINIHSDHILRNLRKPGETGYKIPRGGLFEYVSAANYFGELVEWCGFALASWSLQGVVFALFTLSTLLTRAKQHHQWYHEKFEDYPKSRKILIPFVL
How it was run: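 Microsomes from adult female Sprague-Dawley rat liver or Rat-1A cells expressing human 5α-reductase, 25 μg protein per reaction. Incubation 30–60 min at 0 °C; microsome-bound [3H]4-MA collected on glass-fibre filters and counted. Duplicate or triplicate determinations, values based on reaction rate.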

[2] = NADPH oxidation in presence of microsomes
[3] = tested on: Human prostate cancer PC-3 cells; experiment: PC-3 tumor growth in nude mice; assay type: in vivo, nude mice (human tumor)
Description: Human prostate cancer PC-3 cells were grown in culture medium. About one million cells were injected into male nude mice and the growth of tumors were followed. Within two weeks, the tumor grew to about 100 mm^3. […] The 3 controls received water only.

[4] = tested on: type 1 5α-reductase; assay type: biochemical
Description: [^3 H]4-MA binding assay were described in detail previously (Liang and Liao, 1992; Liang et al., 1983). […] The reaction was started by the addition of 25 μl of microsomes (25 μg protein). After 30-60 min incubation at 0° C., the [^3 H]4-MA bound to microsomes was collected on a Whatman GF/F glass fiber, washed and radioactivity determined (Liang and Liao, 1992).
The reaction was started by the addition of 25 μl of microsomes (25 μg protein). The mixture was incubated at 37° for 30-60 min and stopped by addition of 0.5 ml of ethyl acetate and mixing for 1 min. The organic solvent extract was removed under vacuum.

[5] = biological target: T2, α-Amylase of human saliva (Homo sapiens, UniProt P0DUB6); settings: cited from earlier work
T2 construct: α-Amylase of human saliva; host or cells: human saliva

[6] = biological target: T3, rat small intestinal sucrase (Rattus norvegicus, UniProt P23739); settings: cited from earlier work
T3 construct: rat small intestinal sucrase and maltase; host or cells: rat small intestine

[7] = biological target: T4, microsomal 5α-reductase (Rattus norvegicus, UniProt P24008); experiment: Enzymatic assay of microsomal 5α-reductase (testosterone to 5α-DHT); assay type: biochemical
T4 construct: from the livers of adult Sprague-Dawley female rats; from tissue; host or cells: liver microsomes of adult female Sprague-Dawley rats
T4 sequence (P24008 1-259): T1 sequence (P24008 1-259)
Description: Microsomes were prepared at 4° C. from a buffered 0.32M-sucrose homogenate of human liver and from the livers of adult Sprague-Dawley female rats by differential centrifugation as described previously (Liang et al., 1990), and were used in the assay of 5α-reductase activity. In some experiments, microsomes were solubilized with 0.1% polyoxyethylene ether W-1 as described previously (Liang et al., 1990), except for the substitution of polyoxyethylene ether W-1 for Lubrol-WX.

[8] = tested on: PC-3; experiment: 5α-DHT formation from [3H]testosterone by PC-3 cells; assay type: cell-based, human; settings: Homo sapiens, PC-3, read-out: 5α-DHT formed (% of control)
[9] = tested on: 17β-steroid dehydrogenase; experiment: 4-Androstenedione formation from [3H]testosterone by PC-3 cells (17β-steroid dehydrogenase); assay type: cell-based, human
[10] = tested on: hamster flank organ; settings: for Pigmented macule, right flank organ / Pigmented macule, left flank organ (vehicle): 15 days; for Pigmented macule, right flank organ: vehicle 23.5 ± 3.8
Description: Animals were divided into 10/group. The right flank organ was treated daily with 5 μl solution containing vehicle (ethanol) alone or γ-LA (0.5, 1, and 2 mg) for 15-25 days. The left flank organ of all animals received the same volume of vehicle.
The lengths of the long axis and the short axis of the pigmented spot (pigmented macule) were measured using a caliper with digital display (Digimatic, Mitutoyo Corp., Japan). […] The data are presented as mean ± standard deviation.

[11] = tested on: Human Prostatic Cancer Cells; experiment: Cell morphology during 2 hour incubation; assay type: cell-based
[12] = ethanol solution
[13] = tested on: 5α-reductase in liver and prostate; settings: cited from earlier work
[14] = read-out: % Inhibition of [^3 H]4-MA binding

T2 sequence (P0DUB6 16-511): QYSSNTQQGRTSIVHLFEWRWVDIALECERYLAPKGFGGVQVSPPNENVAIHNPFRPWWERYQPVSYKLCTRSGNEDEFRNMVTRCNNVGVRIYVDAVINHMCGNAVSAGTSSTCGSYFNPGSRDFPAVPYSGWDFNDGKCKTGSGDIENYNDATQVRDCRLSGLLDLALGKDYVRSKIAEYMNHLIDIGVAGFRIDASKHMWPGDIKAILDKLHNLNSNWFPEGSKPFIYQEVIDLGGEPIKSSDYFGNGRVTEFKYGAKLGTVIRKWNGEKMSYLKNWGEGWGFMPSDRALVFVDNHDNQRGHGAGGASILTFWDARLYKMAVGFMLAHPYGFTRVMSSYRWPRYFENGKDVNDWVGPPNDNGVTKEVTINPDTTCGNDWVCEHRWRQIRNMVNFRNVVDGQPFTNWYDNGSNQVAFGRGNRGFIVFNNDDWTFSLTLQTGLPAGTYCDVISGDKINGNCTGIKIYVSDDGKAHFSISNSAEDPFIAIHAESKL
T3 sequence (P23739 1014-1841 limits assumed): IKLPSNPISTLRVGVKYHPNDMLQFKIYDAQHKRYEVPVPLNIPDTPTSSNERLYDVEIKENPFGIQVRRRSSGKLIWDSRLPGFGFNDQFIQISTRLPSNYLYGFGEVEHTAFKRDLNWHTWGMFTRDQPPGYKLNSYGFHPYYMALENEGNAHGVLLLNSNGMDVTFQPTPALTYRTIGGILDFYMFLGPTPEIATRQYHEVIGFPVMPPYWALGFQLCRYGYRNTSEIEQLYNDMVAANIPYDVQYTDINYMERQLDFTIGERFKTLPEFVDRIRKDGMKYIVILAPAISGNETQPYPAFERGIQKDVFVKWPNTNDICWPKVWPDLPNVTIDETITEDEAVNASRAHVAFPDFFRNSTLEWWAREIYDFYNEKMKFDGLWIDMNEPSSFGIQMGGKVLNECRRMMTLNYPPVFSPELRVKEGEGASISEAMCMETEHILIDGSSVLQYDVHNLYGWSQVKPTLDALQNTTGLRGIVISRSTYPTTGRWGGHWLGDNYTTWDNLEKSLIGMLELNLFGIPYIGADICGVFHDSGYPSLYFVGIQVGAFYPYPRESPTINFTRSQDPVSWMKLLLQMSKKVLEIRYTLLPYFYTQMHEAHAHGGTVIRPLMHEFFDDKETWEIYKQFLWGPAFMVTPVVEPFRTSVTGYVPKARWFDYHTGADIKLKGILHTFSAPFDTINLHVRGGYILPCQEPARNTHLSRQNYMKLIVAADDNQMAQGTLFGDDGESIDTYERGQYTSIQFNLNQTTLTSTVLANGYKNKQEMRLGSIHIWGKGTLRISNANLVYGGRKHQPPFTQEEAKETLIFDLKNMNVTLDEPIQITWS
T3 sequence (P23739 2-1013 partner limits assumed): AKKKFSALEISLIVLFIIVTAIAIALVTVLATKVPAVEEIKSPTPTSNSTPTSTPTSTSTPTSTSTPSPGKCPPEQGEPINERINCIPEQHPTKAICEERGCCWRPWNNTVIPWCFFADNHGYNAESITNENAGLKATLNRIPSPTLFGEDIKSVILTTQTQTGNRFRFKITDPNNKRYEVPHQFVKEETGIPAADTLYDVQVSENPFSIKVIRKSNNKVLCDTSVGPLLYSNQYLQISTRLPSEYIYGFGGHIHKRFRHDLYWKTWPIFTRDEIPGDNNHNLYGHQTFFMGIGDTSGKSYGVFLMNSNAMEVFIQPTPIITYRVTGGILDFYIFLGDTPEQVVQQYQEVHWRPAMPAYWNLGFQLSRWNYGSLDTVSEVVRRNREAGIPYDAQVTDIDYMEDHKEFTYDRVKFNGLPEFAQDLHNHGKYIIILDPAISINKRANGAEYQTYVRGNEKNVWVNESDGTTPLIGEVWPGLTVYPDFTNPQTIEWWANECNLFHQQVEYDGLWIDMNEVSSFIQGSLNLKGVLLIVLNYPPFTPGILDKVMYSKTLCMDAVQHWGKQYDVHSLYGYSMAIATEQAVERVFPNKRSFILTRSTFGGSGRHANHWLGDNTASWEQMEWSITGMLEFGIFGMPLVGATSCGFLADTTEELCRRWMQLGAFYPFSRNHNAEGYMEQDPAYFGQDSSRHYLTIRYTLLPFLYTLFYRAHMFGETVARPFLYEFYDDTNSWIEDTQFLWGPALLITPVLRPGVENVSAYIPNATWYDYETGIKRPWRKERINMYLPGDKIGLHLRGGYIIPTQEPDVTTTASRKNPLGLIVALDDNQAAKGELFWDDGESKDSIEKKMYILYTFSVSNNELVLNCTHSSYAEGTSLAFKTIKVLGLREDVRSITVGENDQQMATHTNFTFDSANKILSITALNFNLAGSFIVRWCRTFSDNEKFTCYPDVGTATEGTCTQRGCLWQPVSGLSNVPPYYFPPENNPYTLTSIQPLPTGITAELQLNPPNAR

Work on `O=C(O[C@@H]1Cc2c(O)cc(O)cc2O[C@@H]1c1cc(O)c(O)c(O)c1)c1cc(O)c(O)c(O)c1` [EGCG, (-)Epigallocatechin-3-gallate] yielded an IC50 [1] of 3 µM, an inhibition at 5 µM [1, 14] of 61% and an inhibition at 10 µM [1, 14] of 74%. The inhibition at 20 µM [1, 14] was 79%, the inhibition at 40 µM [1, 14] was 88% and the inhibition at 200 µM [1, 14] was 93%. The NADPH oxidation [2] was “did not induce NADPH oxidation”, the tumor size ([3]; FIG. 33, 1 mg/day, two weeks, controls about 450) was “smaller than 100 mm^3” and the tumor size ([3]; FIG. 34, 1400 mm^3 tumor, after 2 weeks of EGCG) was “about 850 mm^3”. The tumor size ([3]; FIG. 34, 1400 mm^3 tumor, after another 2 weeks of EGCG) was “about 500 mm^3”, the tumor size ([3]; FIG. 34, during the 2 week injection) was “about 100 mm^3” and the tumor size ([3]; FIG. 34, within 2 weeks after injection stopped) was “about 800 mm^3”. For the same compound, the tumor size ([3]; FIG. 34, within 3 weeks after injection stopped) was “over 1200 mm^3”, the “competition with testosterone or NADPH” value [4] was “did not appear to compete with testosterone or NADPH” and the IC50 [5] was 50 to 500 µM. The IC50 [6] was 50 to 500 µM.

With `CCCCC/C=C\C/C=C\C/C=C\CCCCC(=O)O` [γ-Linolenic acid, γ-linolenic acid] the “competition with testosterone or NADPH” value [7] was “did not appear to compete with testosterone or NADPH”, the Km ([7]; 5 μM γ-LA, 2.0 without, read-out: apparent Km value for NADPH) was 3.1 µM and the Vmax ([7]; 5 μM γ-LA, 7.5 without) was 2.8 pmol 5α-DHT formed/mg protein/15 min. For the same compound, the Km ([7]; read-out: apparent Km value for testosterone, 5 μM γ-LA, 2.4 without) was 4.5 µM, the activity at 1 µM ([8]; 1 μM) was 98 ± 6% and the activity at 5 µM ([8]; 5 μM) was 50 ± 3%. For the same compound, the activity at 20 µM ([8]; 20 μM) was 2 ± 2%, the “4-Androstendione formed (% of control)” value ([9]; 1 μM) was 102 ± 6 % of control and the “4-Androstendione formed (% of control)” value ([9]; 5 μM) was 110 ± 1 % of control. The “4-Androstendione formed (% of control)” value ([9]; 20 μM) was 99 ± 2 % of control, the “effect on metabolism of testosterone to 4-androstenedione (17β-steroid dehydrogenase)” value ([9]; words) was “did not affect” and the “growth rate of pigmented macules” value ([10]; FIG. 32, 1 and 2 mg) was “dramatically reduced”. The “change of pigmented macule (#)” value ([10]; Table 7, 0.5 mg) was -34%, the “change of pigmented macule (*)” value ([10]; Table 7, 0.5 mg) was -19% and the “Pigmented macule, right flank organ” value ([10]; Table 7, 0.5 mg/day) was 19.0 ± 3.6 mm^2. For the same compound, the “change of pigmented macule (#)” value ([10]; Table 7, 1.0 mg) was -63%, the “change of pigmented macule (*)” value ([10]; Table 7, 1.0 mg) was -54% and the “Pigmented macule, right flank organ” value ([10]; Table 7, 1.0 mg/day) was 10.8 ± 2.7 mm^2. For the same compound, the “Pigmented macule, left flank organ (vehicle)” value ([10]; Table 7, group 2, right treated with 0.5 mg) was 28.6 ± 4.0 mm^2, the “Pigmented macule, left flank organ (vehicle)” value ([10]; Table 7, group 3, right treated with 1.0 mg) was 29.2 ± 4.8 mm^2 and the “effect on contralateral pigmented macules” value ([10]; hamster, in vivo) was “not affected”. The “visible change in cell morphology” value [11] was “did not produce any visible”, the “oxidation products by TLC” value ([12]; 5 weeks of storage) was “two additional more polar products” and the “changes of the compound by TLC” value ([12]; refrigerated for 3 weeks) was “no detectable changes”. For the same compound, the “inhibition of 5α-reductase activity in liver and prostate” value [13] was “inhibit 5α-reductase activity in both the liver and prostate”.
